Like-named read-outs stand apart in the source and are kept apart here.
How the values were obtained:
[1] = target: T1, mouse RORγ (Mus musculus, UniProt P51450); test: Luciferase reporter gene assay of inhibitory effect against RORγ transcriptional activity (GAL4-mRORγ plasmid in CHO cells); type: cell-based
T1 construct: mouse, NM_011281.2 and from Ile251 to Lys516; expressed in transfected cells; host or cells: CHO cells (transient co-transfection with pG5-Luc reporter)
T1 sequence (P51450 251-516): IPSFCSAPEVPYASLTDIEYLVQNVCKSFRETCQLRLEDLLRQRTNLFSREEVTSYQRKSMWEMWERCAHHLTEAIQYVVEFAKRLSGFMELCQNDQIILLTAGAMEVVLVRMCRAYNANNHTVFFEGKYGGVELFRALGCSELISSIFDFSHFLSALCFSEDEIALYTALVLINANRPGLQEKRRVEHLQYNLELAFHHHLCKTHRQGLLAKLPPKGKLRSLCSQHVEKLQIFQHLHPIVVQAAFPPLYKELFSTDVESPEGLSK
Summary of the method: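 Readout is intracellular luciferase after 2-day compound exposure (8 concentrations, 0.1% DMSO) in CHO cells expressing GAL4 fused to mouse RORγ LBD residues Ile251–Lys516 plus pG5-Luc reporter. EC50 fitted from %-of-control; points showing resazurin-detected cytotoxicity dropped.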

[2] = target: T2, human RORγ (Homo sapiens, UniProt P51449); test: Luciferase reporter gene assay of inhibitory effect against RORγ transcriptional activity (GAL4-hRORγ plasmid in CHO cells); type: cell-based
T2 construct: human, NM_005060.3 and from Ser253 to Lys518; expressed in transfected cells; host or cells: CHO cells (transient co-transfection with pG5-Luc reporter)
T2 sequence (P51449 253-518): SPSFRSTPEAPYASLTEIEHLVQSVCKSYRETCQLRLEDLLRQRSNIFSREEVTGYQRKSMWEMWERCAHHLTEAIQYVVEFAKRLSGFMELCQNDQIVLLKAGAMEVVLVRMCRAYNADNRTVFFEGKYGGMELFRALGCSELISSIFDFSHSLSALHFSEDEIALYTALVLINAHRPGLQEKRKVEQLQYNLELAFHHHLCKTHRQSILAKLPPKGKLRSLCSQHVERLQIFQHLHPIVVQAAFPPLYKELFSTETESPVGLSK

Row | SMILES | EC50 ([1]; read-out: LUC EC50 mRORg) | EC50 ([2]; read-out: LUC EC50 hRORg) | EC50 ([1]; read-out: LUC EC50 (μM) mRORg) | EC50 ([2]; read-out: LUC EC50 (μM) hRORg)
1 | Cc1cc(NC(=O)C[C@H](CC(=O)O)c2noc([C@H]3C[C@@H](CC(C)C)C3)c2C2CC2)n(C)n1 [Example F-669] | < 3 µM | > 3 µM | – | –
2 | Cc1ccc(NC(=O)C(C)C(CCO)c2nnc([C@H]3C[C@@H](CC(C)C)C3)n2C2CC2)c(C)c1 (single isomer, unassigned) [Example F-493] | – | – | < 3 µM | < 3 µM
3 | Cc1cccnc1NC(=O)CCc1nnc(CCC(C)C)n1C1CC1 [Example F-80] | – | – | > 3 µM | > 3 µM
4 | COc1ccc(F)cc1CNC(=O)CCc1nnc(CCC(C)C)n1C1CC1 [Example F-208] | – | – | > 3 µM | > 3 µM
5 | CC(=O)N1C[C@H](C(=O)Nc2ccc(C)cc2C)[C@@H](c2nnc(C3CN(C(=O)OC(C)(C)C)C3)n2C2CC2)C1 (racemic) [Example F-416] | – | – | > 3 µM | > 3 µM
6 | Cc1ccc(NC(=O)CC(CCO)c2nnc(C(F)(F)CCC(C)(C)C)n2C2CC2)c(C)c1 (racemic) [Example F-366] | – | – | < 3 µM | < 3 µM
7 | COc1cccc(C)c1NC(=O)CCc1nnc(CCC(C)C)n1C1CC1 [Example F-86] | – | – | > 3 µM | > 3 µM
8 | Cc1ccc(NC(=O)[C@H]2CN(C)C(=O)[C@@H]2c2nnc(CCCC(C)(C)C)n2C2CC2)c(C)c1 [Example F-303] | – | – | < 3 µM | < 3 µM
9 | CC(=O)N1C[C@@H](C(=O)Nc2ccc(C)cc2C)[C@H](c2nnc([C@H]3C[C@@H](CC(C)(C)C)C3)n2C2CC2)C1 [Example F-462] | – | – | < 3 µM | < 3 µM
10 | Cc1ccc(NCc2nnc(CCC(=O)Nc3cccc(Cl)c3C)n2C2CC2)cc1C [Example F-207] | – | – | < 3 µM | < 3 µM
11 | Cc1ccc(NC(=O)[C@H]2CN(C(=O)N3CCN(C)CC3)C[C@@H]2c2nnc([C@H]3C[C@@H](CC(C)C)C3)n2C2CC2)c(C)c1 [Example F-655] | < 3 µM | < 3 µM | – | –
12 | Cc1ccc(NC(=O)[C@H]2CN(S(=O)(=O)CC(F)(F)F)C[C@@H]2c2nnc([C@H]3C[C@@H](CC(C)(C)C)C3)n2C2CC2)c(C)c1 [Example F-559] | < 3 µM | < 3 µM | – | –
13 | COc1c(C)ccc(NC(=O)C[C@H](CCCO)c2noc([C@H]3C[C@@H](CC(C)(C)C)C3)c2C2CC2)c1C [Example F-696] | < 3 µM | < 3 µM | – | –
14 | CC(=O)N[C@@H](CC(=O)Nc1ccc(C)cc1C)c1nnc(CCCC(C)C)n1C1CC1 [Example F-291] | – | – | < 3 µM | < 3 µM
15 | Cc1ccc(NC(=O)C(C)C(CCO)c2nnc([C@H]3C[C@@H](CC(C)C)C3)n2C2CC2)c(C)c1 (single isomer, unassigned) [Example F-491] | – | – | < 3 µM | > 3 µM
16 | C=CCC(CC(=O)NCc1ccc(C)cc1OC)c1nnc(CCC2CCCCC2)n1C1CC1 (racemic) [Example F-246] | – | – | < 3 µM | < 3 µM
17 | Cc1ccc(NC(=O)[C@H]2CN(C(=O)C(F)F)C[C@@H]2c2nnc([C@H]3C[C@@H](CC(C)(C)C)C3)n2C2CC2)c(C)c1 [Example F-551] | < 3 µM | < 3 µM | – | –
18 | Cc1ccc(NC(=O)CCc2nnc([C@H]3C[C@H](CC(C)(C)C)C3)n2C2CC2)c(C)c1 [Example F-425] | – | – | < 3 µM | < 3 µM
19 | CC(=O)N1C[C@H](C(=O)Nc2ccc(F)cc2C)[C@@H](c2nnc(CCCC(C)(C)C)n2C2CC2)C1 (racemic) [Example F-333] | – | – | < 3 µM | < 3 µM
20 | Cc1noc(NC(=O)CCc2nnc(CCC(C)C)n2C2CC2)c1C [Example F-106] | – | – | > 3 µM | > 3 µM
21 | CC(C)(C[C@H]1C[C@@H](c2onc([C@@H](CCC(=O)O)CC(=O)Nc3ccc(CO)cc3Cl)c2C2CC2)C1)C(=O)O [Example F-739] | > 3 µM | > 3 µM | – | –

— patent US20160137639A1, “TRIAZOLE-ISOXAZOLE COMPOUND AND MEDICAL USE THEREOF” (JAPAN TOBACCO INC., priority 2012, published 2016)
